The values below come from patent US9527851B2, “Pyrrole six-membered heteroaryl ring derivative, preparation method thereof, and medicinal uses thereof” (Jiangsu Hengrui Medicine Co., Ltd., priority 2011, dated 2016).

Each structure is given as a SMILES string.

In one data set the target is JAK1 kinase (Homo sapiens (Human), UniProt P23458). The data set can be described thus: Assay for inhibiting JAK1 kinase (in vitro kinase assay, HRP anti-phosphotyrosine antibody/TMB absorbance). The data set is classed as biochemical. Conditions: 20 μM ATP, 50 minutes at room temperature; read-out: IC50 (JAK1/Bio). The method, then: In vitro activity of compounds of the present invention for inhibiting JAK1 kinase was determined by the following method.
IC50 values of test compounds was calculated from the data of the test compounds in inhibiting the activity of JAK1 kinase at different concentrations.

A short description of data set [1]: Pharmacokinetics assay in rats, intragastric administration, plasma by LC/MS/MS. It counts as in vivo, Sprague-Dawley (SD) rats. The note with it: SD rats, 10 mg/kg. The method, then:
Rats were used as test animals. […] The pharmacokinetic behavior of the compounds of the present invention was studied and evaluated in rats.
56 Healthy adult Sprague-Dawley (SD) rats, half male and half female, purchased from SINO-BRITSH SIPPR/BK LAB.
The appropriate amount of test compounds were weighed and mixed with 1.0 mL of dimethyl sulfoxide to prepare a 1.0 mg/mL suspension.
After an overnight fast, SD rats were administered intragastrically at a dose of 10.0 mg/kg and an administration volume of 10 mL/kg.
The plasma samples were stored at −20° C. The rats were fed 2 hours after administration.
Content determination of the test compounds in rat plasma after intragastrically administering at different concentrations: 50 μL of rat plasmas taken at various time points after administration were mixed with 50 μL of internal standard solution and 100 μL of methanol and mixed for 3 minutes by a vortexer. The mixture was centrifuged for 10 minutes at 13,500 rpm. 10 μL of the supernatant was taken from the plasma sample and analyzed by LC-MS/MS.
Pharmacokinetic Parameters of the compounds of the present invention were shown as follows: […]

Sequence of JAK1 kinase (P23458 whole entry): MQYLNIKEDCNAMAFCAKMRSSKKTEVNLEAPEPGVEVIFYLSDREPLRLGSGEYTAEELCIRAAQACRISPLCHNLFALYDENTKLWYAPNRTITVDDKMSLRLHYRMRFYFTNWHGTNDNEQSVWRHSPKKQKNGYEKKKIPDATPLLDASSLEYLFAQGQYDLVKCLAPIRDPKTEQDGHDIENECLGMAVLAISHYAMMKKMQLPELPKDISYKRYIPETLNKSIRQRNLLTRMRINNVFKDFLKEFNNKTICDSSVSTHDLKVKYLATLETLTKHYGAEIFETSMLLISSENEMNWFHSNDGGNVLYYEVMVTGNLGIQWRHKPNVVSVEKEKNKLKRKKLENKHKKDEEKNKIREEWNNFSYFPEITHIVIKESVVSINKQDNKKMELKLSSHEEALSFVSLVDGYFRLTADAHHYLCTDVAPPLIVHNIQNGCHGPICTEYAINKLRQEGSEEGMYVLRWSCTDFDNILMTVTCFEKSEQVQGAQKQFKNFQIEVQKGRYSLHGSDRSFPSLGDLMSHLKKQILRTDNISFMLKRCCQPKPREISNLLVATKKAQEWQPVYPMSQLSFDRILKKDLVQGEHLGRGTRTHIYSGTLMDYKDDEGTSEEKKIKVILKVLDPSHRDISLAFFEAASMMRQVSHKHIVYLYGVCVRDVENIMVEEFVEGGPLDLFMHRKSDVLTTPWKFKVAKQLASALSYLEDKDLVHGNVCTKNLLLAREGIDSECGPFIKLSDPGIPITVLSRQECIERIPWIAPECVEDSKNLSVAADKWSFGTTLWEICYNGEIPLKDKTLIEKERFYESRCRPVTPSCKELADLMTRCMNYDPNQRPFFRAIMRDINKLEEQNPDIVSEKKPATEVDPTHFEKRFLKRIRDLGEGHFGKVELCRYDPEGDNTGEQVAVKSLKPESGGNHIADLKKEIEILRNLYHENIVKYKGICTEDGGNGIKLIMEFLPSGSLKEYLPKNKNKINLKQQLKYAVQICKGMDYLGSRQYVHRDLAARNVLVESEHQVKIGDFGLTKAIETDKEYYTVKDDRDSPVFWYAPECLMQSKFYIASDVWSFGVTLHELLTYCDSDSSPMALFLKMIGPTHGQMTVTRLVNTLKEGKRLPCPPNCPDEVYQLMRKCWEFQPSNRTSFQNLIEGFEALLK

Turning to `CC(C#N)C(=O)N1C[C@H]2C[C@H](N(C)c3ncnc4[nH]ccc34)C[C@H]2C1` (stereo partly drawn) [Example 82, 2-methyl-3-((3aR,5S,6aS)-5-(methyl(7H-pyrrolo[2,3-d]pyrimidin-4-yl)amino)hexahydrocyclopenta[c]pyrrol-2(1H)-yl)-3-oxopropanenitrile], on JAK1 kinase, the IC50 came to 49 nM. For the compound `CN(c1ncnc2[nH]ccc12)[C@H]1C[C@@H]2CN(C(=O)Nc3nc(O)ns3)C[C@@H]2C1` [Example 156, (3aR,5S,6aS)-N-(3-hydroxy-1,2,4-thiadiazol-5-yl)-5-(methyl(7H-pyrrolo[2,3-d]pyrimidin-4-yl)amino)hexahydrocyclopenta[c]pyrrole-2(1H)-carboxamide], the IC50 at JAK1 kinase turned out to be 171 nM. On the same count and under the same terms, then `CN(c1ncnc2[nH]ccc12)[C@H]1C[C@@H]2CN(C(=O)CC#N)C[C@@H]2C1` [Example 8, 3-((3aR,5S,6aS)-5-(Methyl(7H-pyrrolo[2,3-d]pyrimidin-4-yl)amino)hexahydrocyclopenta[c]pyrrol-2(1H)-yl)-3-oxopropanenitrile], with 32 nM; and `Cc1ncc(NC(=O)N2C[C@H]3C[C@H](N(C)c4ncnc5[nH]ccc45)C[C@H]3C2)s1` [Example 124, (3aR,5S,6aS)-5-(methyl(7H-pyrrolo[2,3-d]pyrimidin-4-yl)amino)-N-(2-methylthiazol-5-yl)hexahydrocyclopenta[c]pyrrole-2(1H)-carboxamide], with 119 nM. Take `CN(c1ncnc2[nH]ccc12)[C@H]1C[C@@H]2CN(S(C)(=O)=O)C[C@@H]2C1` [Example 51, N-methyl-N-((3aR,5S,6aS)-2-(methylsulfonyl)octahydrocyclopenta[c]pyrrol-5-yl)-7H-pyrrolo[2,3-d]pyrimidin-4-amine]: the IC50 on JAK1 kinase was 100 nM. `CN(c1ncnc2[nH]ccc12)[C@H]1C[C@@H]2CN(S(=O)(=O)C3CC3)C[C@@H]2C1` [Example 15, N-((3aR,5S,6aS)-2-(Cyclopropylsulfonyl)octahydrocyclopenta[c]pyrrol-5-yl)-N-methyl-7H-pyrrolo[2,3-d]pyrimidin-4-amine]: the IC50 on JAK1 kinase was 80 nM.

`CN(c1ncnc2[nH]ccc12)[C@H]1C[C@@H]2CN(C(=O)Cc3nn[nH]n3)C[C@@H]2C1` [Example 85, 1-((3aR,5S,6aS)-5-(methyl(7H-pyrrolo[2,3-d]pyrimidin-4-yl)amino)hexahydrocyclopenta[c]pyrrol-2(1H)-yl)-2-(2H-tetrazol-5-yl)ethanone]: at JAK1 kinase, the IC50 was 80 nM. Same read-out and setting: the same measure for `C[C@H](O)C(=O)N1C[C@H]2C[C@@H](N(C)c3ncnc4[nH]ccc34)C[C@H]2C1` [Example 71, (S)-2-hydroxy-1-((3aR,5S,6aS)-5-(methyl(7H-pyrrolo[2,3-d]pyrimidin-4-yl)amino)hexahydrocyclopenta[c]pyrrol-2(1H)-yl)propan-1-one]: 36 nM; for `CN(c1ncnc2[nH]ccc12)[C@H]1C[C@@H]2CN(CC#N)C[C@@H]2C1` [Example 26, 2-((3aR,5S,6aS)-5-(Methyl(7H-pyrrolo[2,3-d]pyrimidin-4-yl)amino)hexahydrocyclopenta[c]pyrrol-2(1H)-yl)acetonitrile]: 46 nM; for `CN(c1ncnc2[nH]ccc12)[C@@H]1C[C@@H]2CN(C(=O)CO)C[C@@H]2C1` [Example 23, 2-Hydroxy-1-((3aR,5R,6aS)-5-(methyl(7H-pyrrolo[2,3-d]pyrimidin-4-yl)amino)hexahydrocyclopenta[c]pyrrol-2(1H)-yl)ethanone]: 21 nM. On the same count and under the same terms, the same measure for `CN(c1ncnc2[nH]ccc12)[C@H]1C[C@@H]2CN(C(=O)CNS(C)(=O)=O)C[C@@H]2C1` [Example 21, N-(2-((3aR,5S,6aS)-5-(Methyl(7H-pyrrolo[2,3-d]pyrimidin-4-yl)amino)hexahydrocyclopenta[c]pyrrol-2(1H)-yl)-2-oxoethyl)methanesulfonamide]: 17 nM; for `C[C@@H](O)C(=O)N1C[C@H]2C[C@@H](N(C)c3ncnc4[nH]ccc34)C[C@H]2C1` [Example 72, (R)-2-hydroxy-1-((3aR,5R,6aS)-5-(methyl(7H-pyrrolo[2,3-d]pyrimidin-4-yl)amino)hexahydrocyclopenta[c]pyrrol-2(1H)-yl)propan-1-one]: 42 nM; for `CN(c1ncnc2[nH]ccc12)[C@H]1C[C@@H]2CN(C(=O)C3CC3)C[C@@H]2C1` [Example 13, Cyclopropyl((3aR,5S,6aS)-5-(methyl(7H-pyrrolo[2,3-d]pyrimidin-4-yl)amino)hexahydrocyclopenta[c]pyrrol-2(1H)-yl)methanone]: 30 nM.

For the compound `Cc1cc(NC(=O)N2C[C@H]3C[C@H](N(C)c4ncnc5[nH]ccc45)C[C@H]3C2)sn1` [Example 119, (3aR,5S,6aS)-5-(methyl(7H-pyrrolo[2,3-d]pyrimidin-4-yl)amino)-N-(3-methylisothiazol-5-yl)hexahydrocyclopenta[c]pyrrole-2(1H)-carboxamide], the IC50 at JAK1 kinase was 48 nM. Same read-out and setting: the same measure for `CN(c1ncnc2[nH]ccc12)[C@H]1C[C@@H]2CN(C(=O)Nc3ccn(C)n3)C[C@@H]2C1` [Example 104, (3aR,5S,6aS)-5-(methyl(7H-pyrrolo[2,3-d]pyrimidin-4-yl)amino)-N-(1-methyl-1H-pyrazol-3-yl)hexahydrocyclopenta[c]pyrrole-2(1H)-carboxamide]: 109 nM. For `CN(c1ncnc2[nH]ccc12)[C@H]1C[C@@H]2CN(C(=O)C(C)(C)O)C[C@@H]2C1` [Example 83, 2-hydroxy-2-methyl-1-((3aR,5S,6aS)-5-(methyl(7H-pyrrolo[2,3-d]pyrimidin-4-yl)amino)hexahydrocyclopenta[c]pyrrol-2(1H)-yl)propan-1-one], the IC50 on JAK1 kinase was determined as 50 nM. For `CCc1nsc(NC(=O)N2C[C@H]3C[C@H](N(C)c4ncnc5[nH]ccc45)C[C@H]3C2)n1` [Example 121, (3aR,5S,6aS)-N-(3-ethyl-1,2,4-thiadiazol-5-yl)-5-(methyl(7H-pyrrolo[2,3-d]pyrimidin-4-yl)amino)hexahydrocyclopenta[c]pyrrole-2(1H)-carboxamide], in data set [1], the “Apparent Distribution Volume Vz/F” value turned out to be 7.203 ± 8.113 L/kg, the “Area Under Curve AUC” value turned out to be 9617 ± 7909 ng·h/mL, the “Clearance CL/F” value was 31.9 ± 26.9 mL/min/kg and the “Mean Residence Time MRT” value is 3.40 ± 0.91 h. For the same compound, in data set [1], the “Plasma Conc. Cmax” value was 2071 ± 1473 ng/mL.

For `CN(c1ncnc2[nH]ccc12)[C@H]1C[C@@H]2CN(C(=O)Nc3nc(C4CC4)ns3)C[C@@H]2C1` [Example 125, (3aR,5S,6aS)-N-(3-cyclopropyl-1,2,4-thiadiazol-5-yl)-5-(methyl(7H-pyrrolo[2,3-d]pyrimidin-4-yl)amino)hexahydrocyclopenta[c]pyrrole-2(1H)-carboxamide], in data set [1], the “Apparent Distribution Volume Vz/F” value was 18.063 ± 20.748 L/kg, the “Area Under Curve AUC” value was 5997 ± 4741 ng·h/mL, the “Clearance CL/F” value came out at 46.1 ± 35.6 mL/min/kg and the “Plasma Conc. Cmax” value was 1061 ± 677 ng/mL. Take `CN(c1ncnc2[nH]ccc12)[C@H]1C[C@@H]2CN(C(=O)[C@H](O)c3ccccc3)C[C@@H]2C1` [Example 81, (R)-2-hydroxy-1-((3aR,5S,6aS)-5-(methyl(7H-pyrrolo[2,3-d]pyrimidin-4-yl)amino)hexahydrocyclopenta[c]pyrrol-2(1H)-yl)-2-phenylethanone]: the IC50 on JAK1 kinase stood at 113 nM. Still for that read-out and setting: the same measure for `C[C@@H](O)C(=O)N1C[C@H]2C[C@H](N(C)c3ncnc4[nH]ccc34)C[C@H]2C1` [Example 19, (R)-2-Hydroxy-1-((3aR,5S,6aS)-5-(methyl(7H-pyrrolo[2,3-d]pyrimidin-4-yl)amino)hexahydrocyclopenta[c]pyrrol-2(1H)-yl)propan-1-one]: 48 nM; for `CC[C@H](O)C(=O)N1C[C@H]2C[C@H](N(C)c3ncnc4[nH]ccc34)C[C@H]2C1` [Example 93, (S)-2-hydroxy-1-((3aR,5R,6aS)-5-(methyl(7H-pyrrolo[2,3-d]pyrimidin-4-yl)amino)hexahydrocyclopenta[c]pyrrol-2(1H)-yl)butan-1-one]: 70 nM. By AUC is commonly meant the area under the concentration-time curve, a measure of exposure. As usually defined, the half-life is the time in which the quantity being followed falls by half. In general, MRT refers to the average time that molecules of a dose stay in the body. The Cmax is the highest concentration seen after dosing. `CN(c1ncnc2[nH]ccc12)[C@H]1C[C@@H]2CN(C(=O)Nc3nc(OCC(C)(C)O)ns3)C[C@@H]2C1` [Example 99, (3aR,5S,6aS)-N-(3-(2-hydroxy-2-methylpropoxy)-1,2,4-thiadiazol-5-yl)-5-(methyl(7H-pyrrolo[2,3-d]pyrimidin-4-yl)amino)hexahydrocyclopenta[c]pyrrole-2(1H)-carboxamide]: in data set [1] (both sexes, Sprague-Dawley, rat, plasma, po, read-out: Apparent Distribution Volume Vz/F), the Vd/F worked out at 2.76 ± 1.53 L/kg. Moreover, in data set [1] (both sexes, Sprague-Dawley, rat, plasma, po, read-out: Area Under Curve AUC), the area under the curve (AUC) came out at 14900 ± 10400 ng·h/mL. Moreover, the CL/F in data set [1] (both sexes, Sprague-Dawley, rat, plasma, po, read-out: Clearance CL/F) amounted to 18.3 ± 14.2 mL/min/kg. For the same compound, the half-life in data set [1] (both sexes, Sprague-Dawley, rat, plasma, po, read-out: Half-Life t½ (converted)) was 2.1 ± 0.73 h. In addition, the MRT in data set [1] (both sexes, Sprague-Dawley, rat, plasma, po, read-out: Mean Residence Time MRT) came to 3.81 ± 0.82 h. In data set [1] (both sexes, Sprague-Dawley, rat, plasma, po, read-out: Plasma Conc. Cmax), the Cmax came out at 2670 ± 1450 ng/mL.
